Measured values: patent US7626043B2, “Antiproliferative activity of the leiodermatolide class of macrolides” (Florida Atlantic University Board of Trustees, priority 2006, dated 2009)

Assays:
Type in all cases: cell-based
[1] = test system: A549 human lung adenocarcinoma cells; test: Cell cycle analysis (propidium iodide flow cytometry), A549; conditions: A549, 24 hr
Experimental: (§1) A549 human lung adenocarcinoma cells were used as cell cycle targets to compare the effects on perturbation of the cell cycle of leiodermatolide to the known mitotic spindle inhibitor Paclitaxel. Cell cycle analyses were performed as follows: A549 human lung adenocarcinoma cells were incubated in tissue culture media (TCM=Roswell Park Memorial Institute (RPMI) medium 1640 supplemented with 100 U/ml penicillin, 100 […] 1-glutamine, 18 mM HEPES, 0.05 mg/ml gentamicin and 10% fetal bovine serum) at 37° C. in 5% CO2 in air in the presence or absence of varying concentrations of leiodermatolide or Paclitaxel for 24 hours.
(§2) Cells were harvested, fixed in ethanol and stained with 0.02 mg/ml of propidium iodide (P.I.) together with 0.1 mg/ml of RNAse A. This procedure permeabilizes cells and allows entry of P.I. to stain DNA (propidium iodide also stains double stranded RNA, so RNAse is included in the preparation to exclude this possibility). Stained preparations were analyzed on a BD Sciences Calibur Flow Cytometer with 488 nm excitation. Fluorescence measurements and resulting DNA histograms were collected from at least 3,000 P.I. stained cells at an emission wavelength of 690 nm. Raw histogram data was further analyzed using a cell cycle analysis program (Multicycle, Phoenix Flow Systems).

[2] = test system: PANC-1 human pancreatic cancer; test: MTT antiproliferative/cytotoxicity assay, PANC-1; conditions: 72-h exposure
Experimental: (§3) Leiodermatolide was analyzed as to its effects on the proliferation of a panel of tumor cell lines including both cell lines. The cell lines tested include: A549 human lung adenocarcinoma, NCI-ADR-RES (Formerly MCF-7/ADR) human cancer, PANC-1 human pancreatic cancer, DLD-1 human colorectal carcinoma, and P388 murine leukemia cell lines. P388 cells were obtained from Dr. R. Camalier, National Cancer Institute Bethesda, Md., and A549, PANC-1, DLD-1 and NCI-ADR-RES cells were obtained from American Type Culture Collection, Rockville, Md. […]
(§4) A volume of 75 μl of warm growth media containing 5 mg/ml MTT is added to each well, cultures returned to the incubator, and left undisturbed for 3 hours. To spectrophotometrically quantitate formation of reduced formazan, plates are centrifuged (900×g, 5 minutes), culture fluids removed by aspiration, and 200 μl of acidified isopropanol (2 ml concentrated HCl/liter isopropanol) added per well. The absorbance of the resulting solutions is measured at 570 nm with a plate reader (BMG labtech NOVOStar). […] The two standard drug controls (indicated above) are included in each assay to monitor the drug sensitivity of each of the cell lines and IC50 values are determined for each drug-cell combination.

[3] = test system: PANC-1 human pancreatic carcinoma cells; test: Cell cycle analysis (propidium iodide flow cytometry), PANC-1; conditions: PANC-1, 24 hr
Experimental: as §1, with “PANC-1 human pancreatic” for “A549 human lung”, “PANC-1 human pancreatic carcinoma cells were” for “A549 human lung adenocarcinoma cells were”, “of leiodermatolide and the known” for “of leiodermatolide to the known”, “as follows: PANC-1 […]” for “as follows: A549 human lung”, “0.05 mg/ml gentamicin, 100 μg/ml sodium pyruvate, 2.5 mg/ml glucose and 10%” for “0.05 mg/ml gentamicin and 10%”
as §2

[4] = test system: A549 human lung adenocarcinoma; test: MTT antiproliferative/cytotoxicity assay, A549; conditions: 72-h exposure
Experimental: as §3, §4

[5] = test system: DLD-1 human colorectal carcinoma; test: MTT antiproliferative/cytotoxicity assay, DLD-1; conditions: 72-h exposure
Experimental: as §3, §4

P388 murine leukemia = test: MTT antiproliferative/cytotoxicity assay, P388; conditions: Mus musculus, 48-hr exposure
Experimental: as §3, §4

[6] = test system: NCI-ADR-RES (Formerly MCF-7/ADR) human cancer; test: MTT antiproliferative/cytotoxicity assay, NCI-ADR-RES; conditions: 72-h exposure, read-out: NCIADR-RES IC50
Experimental: as §3, §4

[7] = 10 nM, listed as leiodermatolide
[8] = 100 nM, listed as leiodermatolide

CCC1OC(=O)CC(O)(C/C=C/C=C(\C)C2OC(=O)CC/C=C(\C)C(C)C(O)C(C)C(OC(N)=O)/C=C\C=C/C2C)C1C (centres unmarked) [Leiodermatolide]
G1 (percentage of cells) ([1]; 1 nM): 55.75%
G2/M (percentage of cells) ([1]; 1 nM): 13.40%
S (percentage of cells) ([1]; 1 nM): 30.85%
G1 (percentage of cells) ([1]; 10 nM): 2.97%
G2/M (percentage of cells) ([1]; 10 nM): 97.03%
S (percentage of cells) ([1]; 10 nM): 0.00%
G1 (percentage of cells) [1, 7]: 3%
G2/M (percentage of cells) [1, 7]: 97%
S (percentage of cells) [1, 7]: 0%
G1 (percentage of cells) ([1]; 100 nM): 1.70%
G2/M (percentage of cells) ([1]; 100 nM): 98.30%
S (percentage of cells) ([1]; 100 nM): 0.00%
G1 (percentage of cells) [1, 8]: 2%
G2/M (percentage of cells) [1, 8]: 98%
S (percentage of cells) [1, 8]: 0%
G1 (percentage of cells) ([1]; 1000 nM): 4.99%
G2/M (percentage of cells) ([1]; 1000 nM): 95.01%
S (percentage of cells) ([1]; 1000 nM): 0.00%
IC50 [2]: 5 nM
G1 (percentage of cells) ([3]; 1 nM): 47.88%
G2/M (percentage of cells) ([3]; 1 nM): 28.93%
S (percentage of cells) ([3]; 1 nM): 23.18%
G1 (percentage of cells) ([3]; 10 nM): 12.04%
G2/M (percentage of cells) ([3]; 10 nM): 83.45%
S (percentage of cells) ([3]; 10 nM): 4.51%
G1 (percentage of cells) [3, 7]: 12%
G2/M (percentage of cells) [3, 7]: 83%
S (percentage of cells) [3, 7]: 4%
G1 (percentage of cells) ([3]; 100 nM): 16.55%
G2/M (percentage of cells) ([3]; 100 nM): 77.45%
S (percentage of cells) ([3]; 100 nM): 6.00%
G1 (percentage of cells) [3, 8]: 16%
G2/M (percentage of cells) [3, 8]: 77%
S (percentage of cells) [3, 8]: 6%
G1 (percentage of cells) ([3]; 1000 nM): 29.54%
G2/M (percentage of cells) ([3]; 1000 nM): 63.92%
S (percentage of cells) ([3]; 1000 nM): 6.53%
IC50 [4]: 3.3 nM
IC50 [5]: 8.3 nM
IC50 (P388 murine leukemia): 3.3 nM
IC50 [6]: 233 nM

CC(=O)O[C@H]1C(=O)[C@@]2(C)[C@H]([C@H](OC(=O)c3ccccc3)[C@]3(O)C[C@H](OC(=O)[C@H](O)[C@@H](NC(=O)c4ccccc4)c4ccccc4)C(C)=C1C3(C)C)[C@]1(OC(C)=O)CO[C@@H]1C[C@@H]2O [Paclitaxel, reference compound]
G1 (percentage of cells) ([1]; 100 nM): 2%
G2/M (percentage of cells) ([1]; 100 nM): 98%
S (percentage of cells) ([1]; 100 nM): 0%
G1 (percentage of cells) ([1]; 100 nM, listed as taxol): 2.18%
G2/M (percentage of cells) ([1]; 100 nM, listed as taxol): 97.82%
S (percentage of cells) ([1]; 100 nM, listed as taxol): 0.00%
G1 (percentage of cells) ([3]; 100 nM): 10%
G2/M (percentage of cells) ([3]; 100 nM): 88%
S (percentage of cells) ([3]; 100 nM): 2%
G1 (percentage of cells) ([3]; 100 nM, listed as paclitaxel): 9.76%
G2/M (percentage of cells) ([3]; 100 nM, listed as paclitaxel): 88.36%
S (percentage of cells) ([3]; 100 nM, listed as paclitaxel): 1.88%
